The supplement of paper PMC9663587

Columns and labels:
Test in all cases: area over the GR curve, 72 h; higher = more effect;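 further: Dye Drop or Deep Dye Drop imaging of viable cells in 384-well plates (Hoechst nuclei, LIVE/DEAD dye), nine half-log doses, GR normalized to DMSO controls and time-zero plates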
[1] = tested on: AU565
[2] = tested on: BT474
[3] = tested on: MCF10A
[4] = tested on: MCF12A
[5] = tested on: MDAMB361
[6] = tested on: MDAMB415
[7] = tested on: MDAMB468
[8] = tested on: PDXHCI002
[9] = tested on: SUM149
[10] = tested on: SUM190PT
[11] = tested on: SUM52PE
[12] = tested on: T47D
[13] = tested on: ZR7530

Compound | area over the GR curve [1] [GR] | area over the GR curve [2] [GR] | area over the GR curve [3] [GR] | area over the GR curve [4] [GR] | area over the GR curve [5] [GR] | area over the GR curve [6] [GR] | area over the GR curve [7] [GR] | area over the GR curve [8] [GR] | area over the GR curve [9] [GR] | area over the GR curve [10] [GR] | area over the GR curve [11] [GR] | area over the GR curve [12] [GR] | area over the GR curve [13] [GR]
CCC(=O)Nc1ccc(C(=O)Nc2ccc(Nc3ncc4c(n3)N(C)c3ccc(C)cc3C(=O)N4C)cc2)cc1 [FMF-03-145-1] | 0.501 | 0.951 | 1.05 | 0.345 | 0.323 | 0.845 | 0.572 | 0.915 | 0.462 | 0.94 | 0.91 | 0.979 | 0.918
COc1cc(N2CCN(C)CC2)ccc1Nc1ncc2c(n1)N(C)c1ccccc1C(=O)N2CC(F)(F)F [FMF-03-146-1] | 0.0771 | 0.0118 | -0.0018 | 0.0258 | 0.126 | 0.0297 | 0.0476 | -0.0147 | -0.0043 | 0.101 | -0.0411 | 0.0652 | 0.0601
CN1CC[C@H](c2c(O)cc(O)c3c(=O)cc(-c4ccccc4Cl)oc23)[C@H](O)C1 [Flavopiridol] (max 1 µM) | 0.368 | 0.371 | 0.277 | 0.167 | 0.397 | 0.284 | 0.269 | 0.278 | 0.255 | 0.348 | 0.215 | 0.274 | 0.236
CC(C)n1nc(-c2ccc3oc(N)nc3c2)c2c(N)ncnc21 [INK128/MLN0128] (max 3.162 µM) | 0.791 | 0.834 | 0.467 | 0.495 | 1.1 | 0.692 | 0.502 | 0.122 | 0.318 | 0.791 | 0.572 | 0.689 | 0.533
CC(C)NC[C@@H](C(=O)N1CCN(c2ncnc3c2[C@H](C)C[C@H]3O)CC1)c1ccc(Cl)cc1 [Ipatasertib/GDC0068] (max 10 µM) | 0.147 | 0.344 | 0.06 | 0.0679 | 0.453 | 0.758 | 0.223 | -0.114 | 0.124 | 0.0489 | 0.0168 | 0.428 | 0.124
CN(C)C(=O)c1cc2cnc(Nc3ccc(N4CCNCC4)cn3)nc2n1C1CCCC1 [LEE011/Ribociclib] (max 10 µM) | 0.403 | 0.412 | 0.235 | 0.0926 | 0.784 | 0.613 | 0.0162 | 0.123 | 0.188 | 0.576 | 0.215 | 0.668 | 0.398
CCNC(=O)c1noc(-c2cc(C(C)C)c(O)cc2O)c1-c1ccc(CN2CCOCC2)cc1 [Luminespib/NVP-AUY922] (max 1 µM) | 0.689 | 0.781 | 0.613 | 0.619 | 0.978 | 0.613 | 0.648 | 0.7 | 0.754 | 0.728 | 0.6 | 0.51 | 0.536
CCOc1cc2ncc(C#N)c(Nc3ccc(OCc4ccccn4)c(Cl)c3)c2cc1NC(=O)/C=C/CN(C)C [Neratinib/HKI272] (max 3.162 µM) | 1.15 | 1.43 | 0.344 | 0.194 | 0.425 | 0.0594 | 0.386 | 0.367 | 0.358 | 0.0652 | 0.0354 | 0.274 | 1.08
O=C(c1cc(Cc2n[nH]c(=O)c3ccccc23)ccc1F)N1CCN(C(=O)C2CC2)CC1 [Olaparib/AZD2281] (max 10 µM) | 0.0653 | 0.0431 | 0.0408 | 0.0468 | 0.0967 | -0.0472 | 0.0573 | 0.167 | 0.184 | 0.0197 | -0.0471 | 0.0229 | 0.0601
CC(=O)O[C@H]1C(=O)[C@@]2(C)[C@H]([C@H](OC(=O)c3ccccc3)[C@]3(O)C[C@H](OC(=O)[C@H](O)[C@@H](NC(=O)c4ccccc4)c4ccccc4)C(C)=C1C3(C)C)[C@]1(OC(C)=O)CO[C@@H]1C[C@@H]2O [Paclitaxel] (max 1 µM) | 0.994 | 0.873 | 0.702 | 0.586 | 0.974 | 0.948 | 1.01 | 0.921 | 0.839 | 0.872 | 0.898 | 0.661 | 0.868
CS(=O)(=O)N1CCN(Cc2cc3nc(-c4cccc5[nH]ncc45)nc(N4CCOCC4)c3s2)CC1 [Pictilisib/GDC0941] (max 10 µM) | 0.646 | 0.588 | 0.262 | 0.089 | 0.716 | 0.378 | 0.205 | 0.212 | 0.117 | 0.143 | 0.364 | 0.477 | 0.465
O=C1NC(=NCc2cccs2)SC1=Cc1ccc2ncccc2c1 [R0-3306] (max 10 µM) | 0.406 | 0.22 | 0.115 | 0.041 | 0.0965 | 0.0262 | 0.185 | 0.0778 | 0.106 | 0.176 | 0.0606 | 0.14 | 0.113
CNCc1ccc(-c2[nH]c3cc(F)cc4c3c2CCNC4=O)cc1 [Rucaparib] (max 10 µM) | 0.0692 | 0.122 | 0.0413 | 0.0783 | 0.336 | 0.11 | 0.101 | 0.0896 | 0.2 | 0.0862 | 0.0094 | 0.0635 | 0.25
CC1(N)CCN(c2cnc(-c3cccc(Cl)c3Cl)c(N)n2)CC1 [SHP099] (max 10 µM) | 0.0263 | -0.022 | 0.081 | 0.0144 | 0.13 | 0.0605 | 0.134 | 0.0735 | 0.001 | 0.0478 | -0.0423 | 0.0099 | -0.0067
CN1CCN(CCOc2cc(OC3CCOCC3)c3c(Nc4c(Cl)ccc5c4OCO5)ncnc3c2)CC1 [Saracatinib/AZD0530] (max 10 µM) | 0.119 | 0.303 | 0.125 | 0.0317 | 0.406 | 0.208 | 0.139 | 0.512 | 0.132 | 0.181 | 0.0817 | 0.171 | 0.399
Cc1cc(C(C)Nc2ccccc2)c2nc(N3CCOCC3)cc(=O)n2c1 (stereo not drawn) [TGX221] (max 10 µM) | 0.103 | -0.0718 | 0.005 | -0.0153 | -0.0911 | 0.224 | 0.103 | -0.0291 | -0.0254 | -0.0619 | 0.0531 | -0.0193 | -0.0239
CN(C)C/C=C/C(=O)Nc1ccc(C(=O)Nc2cccc(Nc3ncc(Cl)c(-c4c[nH]c5ccccc45)n3)c2)cc1 [THZ1] (max 1 µM) | 0.607 | 0.686 | 0.36 | 0.256 | 0.746 | 0.453 | 0.48 | 0.527 | 0.425 | 0.767 | 0.527 | 0.446 | 0.561
CN(C)C/C=C/C(=O)Nc1ccc(C(=O)N2CCC[C@@H](Nc3ncc(Cl)c(-c4c[nH]c5ccccc45)n3)C2)cc1 [THZ531] (max 1 µM) | 0.42 | 0.572 | 0.162 | 0.0965 | 0.682 | 0.434 | 0.404 | 0.352 | 0.154 | 0.501 | 0.222 | 0.229 | 0.472
CN(C)C/C=C/C(=O)Nc1ccc(C(=O)Nc2cccc(Nc3cc(-c4c[nH]c5ccccc45)ncn3)c2)cc1 [THZ-P1-2] (max 10 µM) | 0.194 | -0.079 | 0.13 | 0.0465 | 0.789 | 0.683 | 0.344 | 0.153 | 0.117 | 0.478 | 0.129 | 0.353 | 0.474
Cc1nc(-c2cn3c(n2)-c2ccc(-c4cnn(C(C)(C)C(N)=O)c4)cc2OCC3)n(C(C)C)n1 [Taselisib/GDC0032] (max 10 µM) | 0.97 | 1.43 | 0.484 | 0.263 | 1.41 | 0.516 | 0.217 | 0.374 | 0.205 | 0.298 | 0.647 | 0.899 | 0.798
O=C1NC(=O)[C@@H](c2cn3c4c(cccc24)CCC3)[C@@H]1c1c[nH]c2ccccc12 [Tivantinib/ARQ197] (max 10 µM) | 0.577 | 0.309 | 0.451 | 0.374 | 0.514 | 0.213 | 0.49 | 0.528 | 0.446 | 0.637 | 0.411 | 0.365 | 0.457
Nc1ccc(-c2ccc3ncc4ccc(=O)n(-c5cccc(C(F)(F)F)c5)c4c3c2)cn1 [Torin2] (max 1 µM) | 0.657 | 0.604 | 0.337 | 0.327 | 0.869 | 0.627 | 0.437 | 0.0743 | 0.255 | 0.749 | 0.533 | 0.522 | 0.346
CC[C@@H]1C(=O)N(C)c2cnc(Nc3ccc(C(=O)N[C@H]4CC[C@H](N5CCN(CC6CC6)CC5)CC4)cc3OC)nc2N1C(C)C [Volasertib/BI6727] (max 1 µM) | 0.855 | 0.636 | 0.447 | 0.321 | 0.793 | 0.546 | 0.928 | 0.831 | 0.569 | 0.621 | 0.488 | 0.385 | 0.753
O=C(CCCCCCC(=O)Nc1ccccc1)NO [Vorinostat] (max 10 µM) | 0.327 | 0.136 | 0.168 | 0.0874 | 0.457 | 0.172 | 0.217 | 0.545 | 0.225 | 0.426 | 0.0969 | 0.146 | 0.276
C=CC(=O)Nc1ccc(C(=O)Nc2[nH]nc3c2CN(C(=O)N[C@H](CN(C)C)c2ccccc2)C3(C)C)cc1 [YKL-5-124] (max 10 µM) | 1 | 0.944 | 0.921 | 0.803 | 1.14 | 0.664 | 1.11 | 0.849 | 0.875 | 0.831 | 0.564 | 0.872 | 0.831
CN1CCN(C(=O)c2ccc3cc(CCNc4ncnc5ccc(C#N)cc45)ccc3c2)CC1 [senexin b] (max 10 µM) | 0.111 | 0.0613 | -0.0308 | 0.11 | 0.323 | 0.173 | 0.28 | -0.125 | 0.129 | 0.435 | 0.141 | 0.322 | 0.274
